Measured values: patent US10016396B2, “Dexmedetomidine premix formulation” (Hospira, Inc., priority 2012, dated 2018)
Structures can show the parent of a compound that is named as a salt. Where two headings read alike, the source gives them in different places.

Procedure: The stability of dexmedetomidine hydrochloride to acidic, basic, oxidative and photolytic stress was examined. […] Each sample was injected in duplicate.

## Cc1cccc([C@H](C)c2cnc[nH]2)c1C [dexmedetomidine hydrochloride]
8 h, 13.3 μg/mL
  degradation compared to the control sample: 12.7%
Acid Sample: 5N Hydrochloric Acid, 60° C., 8 hours
  Assay: 95.2%
Base Sample: 2N Sodium Hydroxide, 60° C., 4 hours
  Assay: 93.8%
Control Sample, not subjected to any stress
  Assay: 98.4%
Heat Sample: 60° C., 8 hours
  Assay: 98.4%
Light Sample: photochemical reaction unit, 24 hours
  Assay: 92.0%
Oxidation Sample: 0.3% Hydrogen Peroxide, 60° C., 8 hours
  Assay: 85.7%
